Data as given in patent US7074575B2, “Use of interleukin-19 to treat ovarian cancer” (ZymoGenetics, Inc., priority 2002, dated 2006).

Test system: Ovcar3 (ATCC #HTB-161) cells
Experiment: Ovcar3 cytotoxicity assay (MTT readout)
Format: cell-based
Conditions: 72 hours
Protocol: We tested IL-19 in an Ovcar3 (ATCC #HTB-161) cytoxicity assay to measure the ability of IL-19 to prevent cells from growing during normal growth conditions. We used MTT reagent (Promega, Madison, USA) as our detection and readout for this cell inhibition assay. Procedure of a cytoxicity assay: Ovcar3 Cytotoxicity Assay
Ovcar3 (ATCC #HTB-161) cells were plated at a density of 5000 cells/100 ul/well in clear 96 well TC plates. Cells were plated in complete growth media consisting of RPMI containing 20% FBS, 0.01 mg/ml insulin, 2% HEPES, 1% Sodium Pyruvate and 1% Glutamax. Cells were incubated overnight at 37° C. in a 5% CO2 incubator.
The following day, media was removed from the cells and replaced with 100 ul/well of appropriately diluted samples. All sample dilutions were done in complete growth media. Samples were incubated on the cells for 72 hours.
After incubation, an MTT assay was done on the cells using the manufacturer's protocol (Promega #PAG4100). Dye solution was incubated on the cells 4 hours, followed by a 1 hour incubation with the stop solution. Absorbance was then read on the Victor II and percent inhibition was calculated from the wells containing complete growth media only.

`CC1=C(/C=C/C(C)=C/C=C/C(C)=C/C(=O)O)C(C)(C)CCC1` [Retnoic Acid] showed an inhibition of growth (3 uM) of 29%, an inhibition of growth (10 uM) of 34% and an inhibition of growth (31 uM) of 43%. It also gave an inhibition of growth (100 uM) of 83%.

B1: IL-19: interleukin-19 polypeptide, amino acid sequence SEQ ID NO:2; mature secreted form amino acid 23 (His) to 177 (Ala) (protein, listed as Homo sapiens)
chain: MKLQCVSLWLLGTILILCSVDNHGLRRCLISTDMHHIEESFQEIKRAIQAKDTFPNVTILSTLETLQIIKPLDVCCVTKNLLAFYVDRVFKDHQEPNPKILRKISSIANSFLYMQKTLRQCQEQRQCHCRQEATNATRVIHDNYDQLEVHAAAIKSLGELDVFLAWINKNHEVMSSA
In the case of B1, the inhibition of growth (1 ng/ml) is reported as 4%, the inhibition of growth (10 ng/ml) is reported as 9% and the inhibition of growth (100 ng/ml) is reported as 23%. For the same molecule, the inhibition of growth (1000 ng/ml) was 52%.
